# Data published in patent US6699989B1, “Antiviral and antimicrobial guanidine or biguanidine derivatives” (priority 2000, dated 2004).
# “Also recorded” adds a separate entry of the source. Where two headings read alike, the source gives them in different places.
# Columns and labels:
# HIV-1 = experiment: PBMC assay, virus production by reverse transcriptase activity; format: cell-based
# Description: Method 2: PBMC Assay Method (Peripheral Blood Mononuclear cell)—Description
# This assay addresses the issue of providing a rationale for further evaluation of the compound by providing evidence of in vitro anti-HIV activity against a low passage clinical strain of HIV-1. These fresh human peripheral blood mononuclear cell assays use fresh human cells obtained from the American Red Cross from uninfected, normal human donors. Mononuclear cells from these blood samples are isolated by centrifugation and infected with low passage clinical strains of HIV-1 which have been obtained by culture of blood cells from HIV-infected patients with uninfected PBMCs. Since the PBMCs are not killed by HIV infection, endpoint quantification is performed by measurement of virus production in each well by reverse transcriptase assay or p24 ELISA. These assays provide evidence that the test compounds will have efficacy against viruses, which will likely be encountered in patients without genetic changes, introduced by passage in cell culture.
# Thus, PBMCs assay measures the amount of virus released from the infected cells into the tissue culture supernatant. The activity of the test compound is measured by its ability to reduce the level of virus production relative to the virus controls (cells+virus with no added compound). In PBMC culture we use reverse transcriptase activity in the supernatant to quantify the amount of virus production from the infected cells. Endpoint quantification is performed at 6 days post-infection.
# Fresh human peripheral blood lymphocytes (PBL) are isolated from voluntary Red Cross donors, seronegative for HIV and HBV. Leukophoresed blood is diluted 1:1 with Dulbecco's phosphate buffered saline (PBS), layered over 14 mL of Ficoll-Hypaque density gradient in a 50 mL centrifuge tube. Tubes are then centrifuged for 30 minutes at 600×g. Banded PBLs are gently aspirated from the resulting interface and subsequently washed 2× with PBS by low speed centrifugation. […] After incubation, PBLs are centrifuged and reset in RPMI 1640 with 15% FBS, 2 mM L-glutamine, 100 U/mL. penicillin, 100 ug/mL streptomycin, 10 ug/mL gentamycin, and 20 U/mL recombinant human IL-2. PBLs are maintained in this medium at a concentration of 1-2×10E6/mL with bi-weekly medium changes, until use in assay protocol. For the PBL assay, PHA-P stimulated cells from at least two normal donors are pooled, set in fresh medium at 2×10E6/mL and plated in the interior wells of a 96 well round bottom microplate at 50 μL/well. Test drug dilutions are prepared at a 2× concentration in microtiter tubes and 100 μL of each concentration is placed in appropriate wells in a standard format. 50 μL of a predetermined dilution of virus stock is placed in each test well. Wells with cells and virus alone are used for virus control. Separate plates are identically set without virus for drug cytotoxicity studies using an XTT assay system.
# In the standard PBL assay (MOI: 0.2), the assay was ended on day 7 following collection of cell free supernatant samples for reverse transcriptase activity assay. In the low MOI PBL assay (MOI: 0.02), supernatant samples were collected on day 6, day 11, and day 14 post-infection and analyzed for RT activity.
# CEM-SS cells = format: cell-based
smiles,measurement,setting,value
N=C(NCCCCCCNC(=N)NC(=N)N1CCN(c2cc3c(cc2F)c(=O)c(C(=O)O)cn3C2CC2)CC1)NC(=N)N1CCN(c2cc3c(cc2F)c(=O)c(C(=O)O)cn3C2CC2)CC1 [BVS-10A],RT ACTIVITY MEAN,"HIV-1; 0.01 μg/ml, ROJO in PBMC",6532.7 cpm
same,RT ACTIVITY MEAN,"HIV-1; 0.032 μg/ml, ROJO in PBMC",7531.7 cpm
same,RT ACTIVITY MEAN,"HIV-1; 0.1 μg/ml, ROJO in PBMC",5919.0 cpm
same,RT ACTIVITY MEAN,"HIV-1; 0.32 μg/ml, ROJO in PBMC",5899.7 cpm
same,RT ACTIVITY MEAN,"HIV-1; 1 μg/ml, ROJO in PBMC",6546.7 cpm
same,RT ACTIVITY MEAN,"HIV-1; 3.2 μg/ml, ROJO in PBMC",2327.0 cpm
same,RT ACTIVITY MEAN,"HIV-1; 10 μg/ml, ROJO in PBMC",274.0 cpm
same,RT ACTIVITY MEAN,"HIV-1; 32 μg/ml, ROJO in PBMC",68.0 cpm
same,RT ACTIVITY MEAN,"HIV-1; 100 μg/ml, ROJO in PBMC",49.3 cpm
same,IC50,"HIV-1; Human immunodeficiency virus 1, PBMC, PBMCs, read-out: 50% inhibition of virus replication",2.5 µg/mL
same,activity at 0.01 µg/mL,"HIV-1; Human immunodeficiency virus 1, 0.01 μg/ml, ROJO in PBMC, read-out: RT ACTIVITY % VC",90.8%
same,activity at 0.032 µg/mL,"HIV-1; Human immunodeficiency virus 1, 0.032 μg/ml, ROJO in PBMC, read-out: RT ACTIVITY % VC",105%
same,activity at 0.1 µg/mL,"HIV-1; Human immunodeficiency virus 1, 0.1 μg/ml, ROJO in PBMC, read-out: RT ACTIVITY % VC",82.2%
same,activity at 0.32 µg/mL,"HIV-1; Human immunodeficiency virus 1, 0.32 μg/ml, ROJO in PBMC, read-out: RT ACTIVITY % VC",82%
same,activity at 1 µg/mL,"HIV-1; Human immunodeficiency virus 1, 1 μg/ml, ROJO in PBMC, read-out: RT ACTIVITY % VC",91%
same,activity at 3.2 µg/mL,"HIV-1; Human immunodeficiency virus 1, 3.2 μg/ml, ROJO in PBMC, read-out: RT ACTIVITY % VC",32.3%
same,activity at 10 µg/mL,"HIV-1; Human immunodeficiency virus 1, 10 μg/ml, ROJO in PBMC, read-out: RT ACTIVITY % VC",3.8%
same,activity at 32 µg/mL,"HIV-1; Human immunodeficiency virus 1, 32 μg/ml, ROJO in PBMC, read-out: RT ACTIVITY % VC",0.9%
same,activity at 100 µg/mL,"HIV-1; Human immunodeficiency virus 1, 100 μg/ml, ROJO in PBMC, read-out: RT ACTIVITY % VC",0.7%
same,IC50,"HIV-1; Human immunodeficiency virus 1, ROJO in PBMC, RT activity, read-out: IC50",2.54 µg/mL
same,concentrations at which active in PBMCs,HIV-1; PBMCs,greater than 3.2 μg/mL
same,% CELL VIABILITY,"CEM-SS cells; 0.00032 uG/mL, CEM-SS",100%
same,CYTOTOXICITY TEST VALUES MEAN O.D.,"CEM-SS cells; 0.00032 uG/mL, CEM-SS",1.317 O.D.
same,% CELL VIABILITY,"CEM-SS cells; 0.001 uG/mL, CEM-SS",100%
same,CYTOTOXICITY TEST VALUES MEAN O.D.,"CEM-SS cells; 0.001 uG/mL, CEM-SS",1.323 O.D.
same,% CELL VIABILITY,"CEM-SS cells; 0.0032 uG/mL, CEM-SS",100%
same,CYTOTOXICITY TEST VALUES MEAN O.D.,"CEM-SS cells; 0.0032 uG/mL, CEM-SS",1.307 O.D.
same,% CELL VIABILITY,"CEM-SS cells; 0.01 uG/mL, CEM-SS",100%
same,CYTOTOXICITY TEST VALUES MEAN O.D.,"CEM-SS cells; 0.01 uG/mL, CEM-SS",1.364 O.D.
same,% CELL VIABILITY,"CEM-SS cells; 0.032 uG/mL, CEM-SS",100%
same,CYTOTOXICITY TEST VALUES MEAN O.D.,"CEM-SS cells; 0.032 uG/mL, CEM-SS",1.339 O.D.
same,% CELL VIABILITY,"CEM-SS cells; 0.1 uG/mL, CEM-SS",100%
same,CYTOTOXICITY TEST VALUES MEAN O.D.,"CEM-SS cells; 0.1 uG/mL, CEM-SS",1.369 O.D.
same,% CELL VIABILITY,"CEM-SS cells; 0.32 uG/mL, CEM-SS",100%
same,CYTOTOXICITY TEST VALUES MEAN O.D.,"CEM-SS cells; 0.32 uG/mL, CEM-SS",1.385 O.D.
same,% CELL VIABILITY,"CEM-SS cells; 1 uG/mL, CEM-SS",100%
same,CYTOTOXICITY TEST VALUES MEAN O.D.,"CEM-SS cells; 1 uG/mL, CEM-SS",1.512 O.D.
same,% CELL VIABILITY,"CEM-SS cells; 3.2 uG/mL, CEM-SS",100%
same,CYTOTOXICITY TEST VALUES MEAN O.D.,"CEM-SS cells; 3.2 uG/mL, CEM-SS",1.556 O.D.
same,% CELL VIABILITY,"CEM-SS cells; 10 uG/mL, CEM-SS",100%
same,CYTOTOXICITY TEST VALUES MEAN O.D.,"CEM-SS cells; 10 uG/mL, CEM-SS",1.804 O.D.
same,% CELL VIABILITY,"CEM-SS cells; 32 uG/mL, CEM-SS",100%
same,CYTOTOXICITY TEST VALUES MEAN O.D.,"CEM-SS cells; 32 uG/mL, CEM-SS",2.390 O.D.
same,% CELL VIABILITY,"CEM-SS cells; 100 uG/mL, CEM-SS",100%
same,CYTOTOXICITY TEST VALUES MEAN O.D.,"CEM-SS cells; 100 uG/mL, CEM-SS",1.797 O.D.
same,TC 25%,"CEM-SS cells; CEM-SS, XTT",>100.00 UG/mL
same,TC 50%,"CEM-SS cells; CEM-SS, XTT",>100.00 UG/mL
same,TC 95%,"CEM-SS cells; CEM-SS, XTT",>100.00 UG/mL
same,toxicity in CEM-SS cells,CEM-SS cells; at concentrations up to 100 μg/mL,nontoxic; also recorded: No toxicity
